These results are taken from US20120291148A1, “TRANSGENIC PLANTS WITH ENHANCED CHARACTERISTICS” (Miami University, priority 2007, published 2012).

A word on the inhibition: it is how much of the control response was suppressed.

Like-named read-outs stand apart in the source and are kept apart here.

For series [1], the system named is Arabidopsis seedlings (root growth). As to the kind of experiment: Seedling growth on MS plates with exogenous metabolites. The series is classed as in vivo, Arabidopsis thaliana. The note with it: for inhibition at 1500 µM: Arabidopsis thaliana, 168 h, 1.5 mM valine, 7 days of growth; for sensitivity of AtETHE256-OE plants compared with wild-type plants: 0 mM to 2 mM metabolite on MS plates. The procedure: Studies in Arabidopsis thaliana Heyhn were performed on the Wassilewskija (WS) ecotype. Seeds were vernalized at 4° C. for 48 hours prior to being placed in a growth chamber. For measurement of toxicity and germination rates, seeds were surfaced sterilized with 70% ethanol for 30 seconds followed by 10% bleach for 30 minutes, rinsed three times with sterile deionized water and plated on half strength Murashige and Skoog (MS) plates solidified with 0.6% Gelrite and supplemented with 1.5% sucrose, pH 6.0. Plates were vernalized for four days at 4° C. and then placed in a controlled growth chamber at 23° C. on a 16:8 light/dark cycle.
Wild-type Arabidopsis (Ws), AtETHE1256-OE, and AtETHE1294-OE seeds were sown onto half-strength MS plates with 0 mM to 2 mM valine, propionate, ethylmalonic acid, butyric acid, or crotonic acid (all purchased from Sigma). Neutralized, filter-sterilized metabolites were added after the medium was autoclaved. Once toxicity levels for wild-type seeds were obtained, wild-type, AtETHE1256-OE, and AtETHE1294-OE seeds were plated together on the same plates. Root lengths and cotyledon growth from 100 plants per stress were measured and compared after 7 days of growth.

In the next series the test system is plants. As to the kind of experiment: Preliminary studies of methylmalonate toxicity in plants. Type of series: in vivo.
The target in series [2] is T1, AtETHE1 (Arabidopsis thaliana, UniProt Q9C8L4, S50M).
T1 construct: made in house
As to the kind of experiment: Steady-state kinetic test of candidate substrates with AtETHE1. Type of series: biochemical. The conditions noted are these: steady-state kinetic studies after screening hit. As for the experimental part: (§1) Enzymatic assays were conducted at 25° C. in 10 mM MOPS, pH 7.2, on a Cary IE UV-Vis spectrophotometer. A series of thioesters of glutathione were synthesized as previously described (L. Uotila, Meth. Enzymol. 77 (1981) 424-430), and all other substrates were purchased commercially. The hydrolysis of S-D-lactoylglutathione (Sigma), S-D-acetylglutathione, S-D-acetoacetylglutathione, S-D-formylglutathione, S-D-glyocosylgutathione or S-D-pyruvylglutathione was monitored at 240 nm. S-D-mandeloylglutathione hydrolysis was monitored at 263 nm (L. Uotila, Meth. Enzymol. 77 (1981) 424-430). Hydrolysis of p-nitrophenyl phosphate (Sigma), p-nitrophenyl sulfate (Sigma), and p-nitrophenyl acetate (Sigma) was monitored at 400 nm (see R. A. Anderson, et al., Proc. Natl. Acad. Sci. 72 (1975) 2989-2993; J. J. Brandt, et al., Anal. Biochem. 272 (1999) 94-99; J. M. Armstrong, et al., J. Biol. Chem. 241 (1966) 5137-5149). The hydrolysis of L-alanine-p-nitroanilide (Sigma) was measured at 404 nm (J. J. Brandt, et al., Anal. Biochem. 272 (1999) 94-99). Ala-ala-ala-p-nitroanilide (Sigma) and y-L-Glu-p-nitroanalide (Sigma) hydrolysis was monitored at 410 nm. Hydrolysis of benzoylglycyl-L-phenylalanine was monitored at 254 nm (J. F. Sabastian, et al., Can. J. Biochem. 56 (1978) 329-333). […]

The subject of the next series is AtETHE1 expression. Nature of the series: RT-PCR of AtETHE1 mRNA in hydroponic plants under abiotic stress (Example 4). The series is classed as in vivo, Arabidopsis Columbia. The conditions noted are these: 10 uM ABA 3 hours; 150 mM NaCl 12 hours (roots); 300 mM Mannitol 24 hours. As for the experimental part: Stress studies were performed on Wild-type Arabidopsis Columbia grown hydroponically. Seeds were germinated on Rockwool (GrodanHP, Agro Dynamics Inc., East Brunswick, N.J., USA) suspended above Hoagland's solution and grown in a growth chamber maintained at 23° C. and 16 hour light, 8 hour dark cycles. For the plants stressed with abscisic acid (ABA), seedlings were grown hydroponically for 7 days and then stressed for 3 hours with 10 uM ABA. Plants were grown hydroponically for 18 days for stresses with NaCl and Mannitol. Plants were either stressed with 150 mM NaCl for 12 hours or stressed for 24 hours with 300 mM Mannitol. Plant material, roots only for NaCl stress, was immediately ground in liquid N2 and stored in the −80° C. until needed for RNA isolation.
AtETHE1 RNA levels were determined using RT-PCR on total RNA isolated from either whole plants (ABA, Mannitol treated) or from the roots (NaCl treated). […] ACT8 was used as a control.

Series [3] deals with AtETHE1 transcript levels. As to the kind of experiment: RT-PCR of AtETHE1 transcript levels under abiotic stress (Example 5). The note with it: 10 μM ABA 3 hours; 150 mM NaCl or 300 mM Mannitol 24 hours. The series is classed as in vivo, Arabidopsis Columbia. The procedure: Stress studies were performed on wild-type Arabidopsis Columbia plants grown hydroponically. Seeds were germinated on Rockwool (GrodanHP, Agro Dynamics Inc., East Brunswick, N.J., USA) suspended above Hoagland's solution (Cowgilland & Milazzo, (1989) The Culturing and Testing of Two Species of Duckweed. In W J Adams, G A Chapman, eds, Aquatic Toxicology and Hazard Assessment Vol 12. American Society for Testing and Materials, Philadelphia, Pa., pp 379-391) and grown in a growth chamber maintained at 23° C. with 16 hour light, 8 hour dark cycles. Plants stressed with abscisic acid (ABA), were grown hydroponically for 7 days and then stressed for 3 hours with 10 μM ABA. Plants were grown hydroponically for 18 days prior to treatment with either 150 mM NaCl or 300 mM Mannitol for 24 hours.
AtETHE1 RNA levels were determined by RT-PCR on total RNA (1 μg) isolated from cotyledon, root, stem, leaf, silique, and bud, and seedlings subjected to abiotic stresses. AtETHE1 cDNA was synthesized using a Thermoscript RT-PCR kit, followed by 25 cycles of PCR using the primer pair 2-3-5′ and 2-3-2. ACT8 was used as a control (An, et al., (1996) Plant J 10: 107-121).

Series [4] addresses T1, AtETHE1. Nature of the series: Inhibition of AtETHE1 p-nitrophenyl acetate hydrolysis by metal chelator. Type of series: biochemical. The conditions noted are these: presence of metal chelator. The procedure: as §1
The nature of series [5]: Steady-state hydrolysis of p-nitrophenyl acetate by purified AtETHE1. The note with it: substrate p-nitrophenyl acetate; 25° C., 10 mM MOPS pH 7.2. Type of series: biochemical, Arabidopsis thaliana. The procedure: as §1
Series [6] in a line: Thioesterase activity of AtETHE1 with SLG and other glutathione thioesters. Type of series: biochemical, Arabidopsis thaliana. As for the experimental part:
as §1

The conditions of series [7]: recombinant rat carbonic anhydrase III, G. Kim et al. 2000; cited from earlier work.

Regarding `CC(C)[C@H](N)C(=O)O` [valine], the inhibition at 1500 µM in series [1] (AtETHE1256-OE plants, read-out: inhibition of growth) was about 40%; in series [1] (wild-type plants, read-out: inhibition of root growth) it was about 80%.

As for `CC(C(=O)O)C(=O)O` [methylmalonate], the toxicity in plants result in the series on plants is “toxic in plants”. Consider “Ala-ala-ala-p-nitroanilide [Ala-Ala-Ala-pNA]”, for which, at AtETHE1 [2], the “substrate for AtETHE1” value is on record as “not to be substrates”. For `CC1=CC(=O)CC(C)(C)[C@@]1(O)/C=C/C(C)=C\C(=O)O` [ABA, abscisic acid], the “fold increase of AtETHE1 expression versus control” value (from here on “fold increase”) in the series with AtETHE1 expression was 1.8 fold. The “increase in AtETHE1 transcript levels” value in series [3] is listed as “approximately two fold increases”. In the case of `c1cnc2c(c1)ccc1cccnc12` [1,10-o-phenanthroline], on AtETHE1 [4], the “effect on AtETHE1 activity towards p-nitrophenyl acetate” value is “inhibited”. Turning to `N[C@@H](CCC(=O)Nc1ccc([N+](=O)[O-])cc1)C(=O)O` [Glu-pNA, y-L-Glu-p-nitroanalide], the “substrate for AtETHE1” value at AtETHE1 [2] is reported as “not to be substrates”. In the case of `[Cl-].[Na+]` [NaCl], in the series with AtETHE1 expression, the “fold increase” value came to 2.1 fold. Also, the “increase in AtETHE1 transcript levels” value in series [3] is listed as “approximately two fold increases”. Take `CCCC(=O)O` [butyric acid]: the “sensitivity of AtETHE256-OE plants compared with wild-type plants” value in [1] is “same sensitivity”.

`CCC(C(=O)O)C(=O)O` [ethylmalonic acid]: in [1], the “sensitivity of AtETHE256-OE plants compared with wild-type plants” value is “same sensitivity”. Same read-out and setting: for `C/C=C/C(=O)O` [crotonic acid] the value was “same sensitivity”; for `CCC(=O)O` [propionate], “same sensitivity”. As to `OC[C@@H](O)[C@@H](O)[C@H](O)[C@H](O)CO` [mannitol], the “fold increase” value in the series with AtETHE1 expression amounted to 2.6 fold. For the same molecule, in series [3], the “increase in AtETHE1 transcript levels” value is “approximately 2.5 fold”.

B1: AtETHE1: Arabidopsis thaliana ETHE1 polypeptide, recombinant, purified from E. coli; mononuclear Fe(II) β-lactamase fold protein (protein)
chain: MKLLFRQLFENESSTFTYLLADVSHPDKPALLIDPVDKTVDRDLKLIDELGLKLIYAMNTHVHADHVTGTGLLKTKLPGVKSVISKASGSKADLFLEPGDKVSIGDIYLEVRATPGHTAGCVTYVTGEGADQPQPRMAFTGDAVLIRGCGRTDFQEGSSDQLYESVHSQIFTLPKDTLIYPAHDYKGFEVSTVGEEMQHNPRLTKDKETFKTIMSNLNLSYPKMIDVAVPANMVCGLQDVPSQAN
Consider B1, for which the “activity against p-NPA” value in series [5] is reported as 2.02±0.46 nmols/min/mg of enzyme. Also, in [6] (Example 5, over-expressed purified AtETHE1), the “enzymatic activity towards SLG” value was “no enzymatic activity”. Moreover, the “hydrolysis of glutathione thioesters” value in series [6] (as-isolated and after incubation with excess iron, SLG and other thioester derivatives) is given as “did not hydrolyze any of the glutathione thioesters”.

B2: rat carbonic anhydrase III: recombinant rat carbonic anhydrase III, literature comparator for esterase activity (protein, UniProt P14141 2-260, looked up)
Carbonic anhydrase 3: AKEWGYASHNGPEHWHELYPIAKGDNQSPIELHTKDIRHDPSLQPWSVSYDPGSAKTILNNGKTCRVVFDDTFDRSMLRGGPLSGPYRLRQFHLHWGSSDDHGSEHTVDGVKYAAELHLVHWNPKYNTFGEALKQPDGIAVVGIFLKIGREKGEFQILLDALDKIKTKGKEAPFNHFDPSCLFPACRDYWTYHGSFTTPPCEECIVWLLLKEPMTVSSDQMAKLRSLFASAENEPPVPLVGNWRPPQPIKGRVVRASFK
As for B2, in [7], the “esterase activity with p-nitrophenyl acetate” value is 25.8 nmols/min/mg.
